From PubChem BioAssay AID1996
Converted amounts (≈) assume the structure as drawn.

Conditions: buffer; pH 7.4; 200.0 µM

| Compound | solubility kinetic |
| --- | --- |
| O=C(CNc1cccc(Cl)c1)c1ccc(Br)cc1 | < 0.7 µg/mL |
| COc1ccc(NC(=S)N2CCC(c3ccc(C)cc3)C2)cc1 (stereo not drawn) | 0.6 µg/mL (≈ 1.84 µM) |
| COc1cccc(C(=S)N2CCCC2)c1OC | 35.3 µg/mL (≈ 140 µM) |
| Cc1cccc(C(=O)N[C@@H](C)C(=O)N2CCN(c3ncccn3)CC2)c1 | > 53 µg/mL |
| COC(=O)c1ccccc1-c1cn(C)c2ccccc2c1=O | > 44 µg/mL |
| CC1CC(C)(C)NC(=S)O1 (stereo not drawn) | > 23.9 µg/mL |
| COc1ccccc1NS(=O)(=O)c1cc(NC(=O)COc2ccccc2)ccc1N1CCOCC1 | 8.1 µg/mL (≈ 16.3 µM) |
| O=C(C1CCCCC1)N1CCN(c2nc(-c3ccc(F)cc3)cs2)CC1 | 1.5 µg/mL (≈ 4.02 µM) |
| O=S(=O)(Nc1ccccc1)c1ccc(NS(=O)(=O)c2cccs2)cc1 | 34.4 µg/mL (≈ 87.2 µM) |
| CC12CCC(=O)N1C(C(=O)Nc1nc3ccccc3s1)CS2 (stereo not drawn) | 13 µg/mL (≈ 39 µM) |
| CSc1ccccc1C(=O)Nc1cccc([N+](=O)[O-])c1C | 7.5 µg/mL (≈ 24.8 µM) |
| Cc1c(C(=O)NC(=S)Nc2cccnc2)cccc1[N+](=O)[O-] | 0.9 µg/mL (≈ 2.85 µM) |
| N#Cc1c(N2C(=O)c3ccc(C(=O)O)cc3C2=O)sc2c1CCCC2 | > 52.9 µg/mL |
| CCCc1cnc(N2CCN(S(C)(=O)=O)CC2)nc1 | > 42.7 µg/mL |
| CCCC12CN3CCN(C1)CC(CCC)(C3)C2=O | 30.9 µg/mL (≈ 123 µM) |
| CCOC(=O)c1cc(-c2csc(COc3ccccc3Cl)n2)on1 | < 0.4 µg/mL |
| S=C(NCCN1CCOCC1)NC1CCCCC1 | 38.5 µg/mL (≈ 142 µM) |
| C=CC(=O)Oc1ccc(N2Cc3ccccc3C2=O)cc1 | 2.4 µg/mL (≈ 8.59 µM) |
| COc1ccccc1CC(=O)NCCc1c[nH]c2ccccc12 | 44.9 µg/mL (≈ 146 µM) |
| O=[N+]([O-])c1ccc2c(c1)nc1n2CCSC1 | > 35.3 µg/mL |
| CC1CN(S(=O)(=O)c2ccc(C(=O)N(C)C3CCCCC3)cc2)CC(C)O1 (stereo not drawn) | > 59.2 µg/mL |
| CN1C(=O)S/C(=C/c2ccc(OCc3cccc(C(=O)O)c3)cc2)C1=O | 10.6 µg/mL (≈ 28.7 µM) |
| CC1CCc2sc(C(=O)NCCCn3ccnc3)cc2C1 (stereo not drawn) | 35 µg/mL (≈ 115 µM) |

| Compound | solubility kinetic |
| --- | --- |
| CC(OC(=O)C1CC1C)C(=O)Nc1ccc(Cl)cn1 (stereo not drawn) | 40.9 µg/mL (≈ 145 µM) |
| CC1CC(C)CN(C(=O)c2ccc(C#N)cc2)C1 (stereo not drawn) | > 36.3 µg/mL |
| Cc1ccccc1C(=O)NC1CCN(CC(=O)NC2CCCCC2)CC1 | > 53.6 µg/mL |
| CC(Sc1nnc(Cc2ccccc2)o1)C(=O)NC1(C#N)CCCCC1 (stereo not drawn) | > 55.6 µg/mL |
| N#CCc1ccc(OC(=O)c2cccnc2Cl)cc1 | > 40.9 µg/mL |
| Cc1ccc(CNS(=O)(=O)c2cccc3nsnc23)cc1 | > 47.9 µg/mL |
| CC1CN(C(=O)/C=C/c2ccc(SC(F)F)cc2)CC(C)O1 (stereo not drawn) | 36.3 µg/mL (≈ 111 µM) |
| CC(=O)N(C)c1ccc(N=C2C(=O)Nc3ccccc32)cc1 | > 44 µg/mL |
| O=C(NCc1ccc(F)cc1)c1cnccn1 | > 34.7 µg/mL |
| O=C(NCC1CCCO1)c1cnc(Cl)c(Cl)c1 (stereo not drawn) | > 41.3 µg/mL |
| CCOC(=O)CNC(=O)c1c(C)nn(C)c1Cl | > 39 µg/mL |
| COc1ccccc1NC(=O)c1ccccc1Oc1ccccc1 | < 0.7 µg/mL |
| Cc1ccc(C)c(NCC(O)c2ccccc2)c1 (stereo not drawn) | > 36.2 µg/mL |
| Cc1cccc(NS(=O)(=O)c2ccc(C(C)(C)C)cc2)n1 | 42.7 µg/mL (≈ 140 µM) |
| Cc1cc(-c2ccc(S(=O)(=O)N3CCCCC3)s2)on1 | 2.6 µg/mL (≈ 8.32 µM) |
| O=C(COC(=O)c1cc[n+]([O-])cc1)NC(=O)c1ccc(OC(F)F)cc1 | > 54.9 µg/mL |
| Cn1c(=O)oc2cc(S(=O)(=O)Nc3ccc(O)cc3)ccc21 | > 48 µg/mL |
| COc1ccc(Cl)cc1NC(=O)CN1c2ccccc2CC1C (stereo not drawn) | 2.2 µg/mL (≈ 6.65 µM) |
| NS(=O)(=O)c1ccc(Sc2ccc3ccccc3c2)nc1 | 2.1 µg/mL (≈ 6.64 µM) |
| COc1ccc(OC)c(/C=C/C(=O)Nc2ccc(OC)nc2)c1 | 4.7 µg/mL (≈ 15 µM) |
| Cc1cc(Cl)c(OCCOCCN2CCNCC2)c(Cl)c1.O=C(O)C(=O)O | 62.5 µg/mL |
| Cc1ccc(CC(=O)Nc2nccs2)cc1C | 3.3 µg/mL (≈ 13.4 µM) |
| CCn1c(C(O)c2cc(OC)c(OC)c(OC)c2)nc2ccccc21 (stereo not drawn) | 47.7 µg/mL (≈ 139 µM) |

| Compound | solubility kinetic |
| --- | --- |
| O=C(CSc1nc2ccccc2c(=O)n1-c1ccccc1F)N1CCOCC1 | 54.3 µg/mL (≈ 136 µM) |
| CC(OC(=O)COc1ccccc1)C(=O)NC1CCCC1 (stereo not drawn) | > 43.7 µg/mL |
| O=C(NN1CCOCC1)c1ccc(Cl)c([N+](=O)[O-])c1 | > 42.9 µg/mL |
| O=C1CSC(=Nc2cccc(Cl)c2Cl)N1 | 37.4 µg/mL (≈ 143 µM) |
| O=C(COC(=O)CCC(=O)c1ccc(F)cc1)NCc1ccco1 | > 50 µg/mL |
| COc1cc(OC)c(C(=O)O/N=C(\N)c2cccc(C)c2)cc1OC | > 51.7 µg/mL |
| Cc1ccsc1/C=C1/SC(=O)N(CC(=O)N2CCCC2)C1=O | 5.9 µg/mL (≈ 17.5 µM) |
| Cc1ccc(-n2c(SCC(=O)N(C)C3CCS(=O)(=O)C3)nc3ccccc3c2=O)c(C)c1 (stereo not drawn) | > 70.7 µg/mL |
| CC(NC(=O)c1cccc(S(=O)(=O)N(C)C)c1)C1CC2CCC1C2 (stereo not drawn) | 15.5 µg/mL (≈ 44.2 µM) |
| CCCCCC(=O)NC(=S)Nc1ccc2oc(=O)ccc2c1 | 1.5 µg/mL (≈ 4.71 µM) |
| COc1cc(C2C(C#N)=C(N)Oc3cc(C)oc(=O)c32)cc(OC)c1OC (stereo not drawn) | > 55.6 µg/mL |
| CCc1cccc(NS(=O)(=O)c2ccc3c(c2)n(C)c(=O)n3C)c1 | 3.4 µg/mL (≈ 9.84 µM) |
| CN(C)c1ccc(CC2C(=O)Nc3ccccc32)cc1 (stereo not drawn) | 37.3 µg/mL (≈ 140 µM) |
| Fc1ccc(-c2csc(-c3ccncc3)n2)cc1 | 1.3 µg/mL (≈ 5.07 µM) |
| CCOCCN(C(=O)c1ccccc1Cl)c1cccc(C)c1C | > 49.8 µg/mL |
| C#CC1(NC(=O)NC(=O)c2c(F)cccc2F)CCCCC1 | 0.6 µg/mL (≈ 1.96 µM) |
| CSc1ccccc1NC(=O)CN1CCCCC1 | 35.8 µg/mL (≈ 135 µM) |
| COc1ccc(-c2noc(CN(C)C(=O)c3ccco3)n2)cc1 | 42.7 µg/mL (≈ 136 µM) |
| O=C(CSc1nccc(=O)[nH]1)N1CCOCC1 | > 38.3 µg/mL |
| O=C(OCc1c(F)cccc1Cl)c1cnc2ccccc2n1 | 1.8 µg/mL (≈ 5.68 µM) |
| c1ccc(CNc2nc(-c3ccccc3)nc3ccccc23)cc1 | 1.2 µg/mL (≈ 3.85 µM) |

Results, then the molecule that gave them:

| solubility kinetic | Compound |
| --- | --- |
| > 49 µg/mL | CCOc1ccccc1NS(=O)(=O)c1csc(C(N)=O)c1 |
| 42.9 µg/mL (≈ 135 µM) | O=C1CCCN1CC1CCN(Cc2nc(CC3CC3)no2)CC1 |
| > 60.6 µg/mL | O=C(CN1C(=O)NC2(CCc3ccccc32)C1=O)Nc1c(Cl)cccc1Cl (stereo not drawn) |
| 3.4 µg/mL (≈ 9.79 µM) | COc1ccc(OC)c(/C=C/c2c([N+](=O)[O-])c(=O)n(C)c(=O)n2C)c1 |
| < 0.6 µg/mL | CC1CCN(C(=O)c2cc3c(ccc4ccccc43)o2)CC1 |
| > 46.3 µg/mL | CC(=O)N1CCCc2cc(S(=O)(=O)N3CCCC3)ccc21 |
| 1.1 µg/mL (≈ 3.52 µM) | Cc1ccc(C)c(N2CCN(c3ncccc3[N+](=O)[O-])CC2)c1 |
| > 44.5 µg/mL | CN(C)CCCNc1oc(/C=C/c2ccccc2)nc1C#N |
| > 28.7 µg/mL | Cc1cc2[nH]cnc2c([N+](=O)[O-])c1C |
| 10.7 µg/mL (≈ 32.4 µM) | O=C(CN1CCN(c2ccccc2F)CC1)c1ccc(O)cc1O |
| 42.3 µg/mL (≈ 145 µM) | COc1ccc(-c2nc(C)c(C(C)=O)n2O)cc1[N+](=O)[O-] |
| 40.5 µg/mL (≈ 139 µM) | COc1cc(C)ccc1OCC(=O)NC1CCCCCC1 |
| 51.6 µg/mL (≈ 145 µM) | CC(=O)c1cccc(NC(=O)N2CCC(NC(=O)c3ccco3)CC2)c1 |
| 33.2 µg/mL (≈ 135 µM) | CC(N=C1NC(C)(C)Cc2ccccc21)C(=O)O (stereo not drawn) |
| < 0.4 µg/mL | Cc1cc(NC(=O)c2ccco2)c(=O)n(Cc2cccc(C(F)(F)F)c2)c1 |
| 43 µg/mL (≈ 125 µM) | O=C1[C@@H]2C(c3cccnc3)=NO[C@@H]2C(=O)N1c1ccc2ccccc2c1 |
| > 30 µg/mL | C=CCn1c(CCC)nc2ccccc21 |
| 7.8 µg/mL (≈ 24.5 µM) | Cc1cnc(NC(=O)c2ccc(OCC3CCCO3)cc2)s1 (stereo not drawn) |
| > 36.2 µg/mL | NNC(=O)c1oc2ccccc2c1-n1cccc1 |
| > 39.2 µg/mL | Fc1ccc(-n2c(-c3ccco3)n[nH]c2=S)cc1 |
| > 51.2 µg/mL | Cc1ccc(CNC(=O)CN2CCN(c3ccc(F)cc3)CC2)cc1 |
| 25.5 µg/mL (≈ 73 µM) | CC(=O)CCc1ccc(OCCCOc2cccc3cccnc23)cc1 |
| > 49.3 µg/mL | CCCN(CC(=O)Nc1ccccc1C)C(=O)c1cc(C)oc1C |
| 30.3 µg/mL (≈ 140 µM) | Cc1ccccc1CC(=O)Nc1ccon1 |
| 31.3 µg/mL (≈ 75.4 µM) | CN(c1ccccc1C(=O)NCc1ccccc1Cl)S(=O)(=O)c1ccccc1 |
| 1 µg/mL (≈ 3.11 µM) | O=C(c1c(F)cccc1F)N(C1CCCCC1)C1CCCCC1 |

| solubility kinetic | Compound |
| --- | --- |
| > 48.5 µg/mL | CCCc1c(O)nc(SCC(=O)NCc2ccco2)[nH]c1=O |
| 42 µg/mL (≈ 125 µM) | Cc1ccc(NC(=O)C2CC(=O)N(CCc3ccccc3)C2)c(C)c1 (stereo not drawn) |
| > 41.7 µg/mL | CC(C)(C)C(=O)OC/C(N)=N/OC(=O)c1ccccc1 |
| 5.7 µg/mL (≈ 21.1 µM) | O=C(Nc1ccccc1)Nc1cccc2nsnc12 |
| 39.6 µg/mL (≈ 128 µM) | C=C(C)CN(CC)C(=O)CC1C(=O)NCCN1CC(C)(C)C (stereo not drawn) |
| 2.6 µg/mL (≈ 7.27 µM) | Cc1ccc(NC2=C(Cl)C(=O)OC2OC(=O)c2ccc(C)cc2)cc1 (stereo not drawn) |
| > 42.5 µg/mL | Cc1occc1C(=O)NCc1nc(-c2ccccc2)no1 |
| < 0.2 µg/mL | O=[N+]([O-])c1cc([N+](=O)[O-])c2cc(-c3cccnc3)[nH]c2c1 |
| 36.5 µg/mL (≈ 134 µM) | Cc1ccc(OCCNC(=O)c2ccccc2F)cc1 |
| > 56.1 µg/mL | CC1(C)C(=O)Nc2ccccc2N1C(=O)COC(=O)c1cccnc1Cl |
| 44.5 µg/mL (≈ 137 µM) | O=C(/C=C/c1ccc(F)cc1)N1CCN(Cc2ccccc2)CC1 |
| > 60.5 µg/mL | CCOC(=O)c1c(C)[nH]c(C)c1C(=O)COC(=O)Cc1ccc(OC)c(OC)c1 |
| > 52.9 µg/mL | CC1CN(C(C)C(=O)NC(c2ccccc2)c2ccccc2)CC(C)O1 (stereo not drawn) |
| > 47.3 µg/mL | CC(=O)Nc1ccc(NC(=O)[C@H](C)NC(=O)c2ccco2)cc1 |
| 3.2 µg/mL (≈ 9.02 µM) | COc1ccc(CNC(=S)Nc2ccc(F)c(Cl)c2)cc1OC |
| > 49.9 µg/mL | O=C(O)CSCc1nc2scc(-c3ccccc3)c2c(=O)[nH]1 |
| > 45.2 µg/mL | CC(=O)Nc1ccc(NC(=O)C2(C)CC2(Cl)Cl)cc1 (stereo not drawn) |
| > 34.5 µg/mL | Fc1ccc(-c2cnc3n2CCCCC3)cc1 |
| 45.8 µg/mL (≈ 138 µM) | Cc1ccccc1C(=O)Nc1cccc(NC(=O)c2cccnc2)c1 |
| < 0.4 µg/mL | CCC1CN(C(=O)NCc2ccc(C)cc2)c2cc(Cl)ccc2O1 (stereo not drawn) |
| < 0.3 µg/mL | CCOc1ccccc1NC(=O)Nc1ccc2c(c1)CCC2 |
| > 47.7 µg/mL | O=C(Nc1ccccc1N1CCOCC1)c1ccc(Cl)nc1 |
| 14.7 µg/mL (≈ 42.4 µM) | Cc1ccc(-n2c(C(C)C)nc3oc4ccccc4c(=O)c3c2=O)cc1 |
| > 39.2 µg/mL | CN(C(=O)/C=C/c1ccc(F)cc1)C1CCCCC1 |
| > 44.9 µg/mL | O=C(Nc1ccc(Br)cc1)N1CCCC(O)C1 (stereo not drawn) |
